ChEMBL document CHEMBL1123292, “Synthesis and antimitogenic activities of four analogues of cyclosporin A modified in the 1-position” (J Med Chem, 1986)

Tests used:
[1] = inhibitory concentration against Con A stimulated thymocytes; type: functional
[2] = Inhibitory concentration against Con A stimulated thymocytes; type: functional

| SMILES | IC50 [1] [µM] | IC50 [2] [µM] |
| --- | --- | --- |
| CC[C@@H]1NC(=O)[C@H]([C@@H](C)O)N(C)C(=O)[C@H](C(C)C)N(C)C(=O)[C@H](CC(C)C)N(C)C(=O)[C@H](CC(C)C)N(C)C(=O)[C@@H](C)NC(=O)[C@H](C)NC(=O)[C@H](CC(C)C)N(C)C(=O)[C@H](C(C)C)NC(=O)[C@H](CC(C)C)N(C)C(=O)CN(C)C1=O | 8 | – |
| CC[C@@H]1NC(=O)[C@H](CC)N(C)C(=O)[C@H](C(C)C)N(C)C(=O)[C@H](CC(C)C)N(C)C(=O)[C@H](CC(C)C)N(C)C(=O)[C@@H](C)NC(=O)[C@H](C)NC(=O)[C@H](CC(C)C)N(C)C(=O)[C@H](C(C)C)NC(=O)[C@H](CC(C)C)N(C)C(=O)CN(C)C1=O | – | 15 |
| CCCCC(C)[C@@H](O)[C@H]1C(=O)N[C@@H](CC)C(=O)N(C)CC(=O)N(C)[C@@H](CC(C)C)C(=O)N[C@@H](C(C)C)C(=O)N(C)[C@@H](CC(C)C)C(=O)N[C@@H](C)C(=O)N[C@H](C)C(=O)N(C)[C@@H](CC(C)C)C(=O)N(C)[C@@H](CC(C)C)C(=O)N(C)[C@@H](C(C)C)C(=O)N1C (some centres undefined) | – | 0.01 |
| CC[C@@H]1NC(=O)[C@H]([C@H](O)C(C)C)N(C)C(=O)[C@H](C(C)C)N(C)C(=O)[C@H](CC(C)C)N(C)C(=O)[C@H](CC(C)C)N(C)C(=O)[C@@H](C)NC(=O)[C@H](C)NC(=O)[C@H](CC(C)C)N(C)C(=O)[C@H](C(C)C)NC(=O)[C@H](CC(C)C)N(C)C(=O)CN(C)C1=O | – | 0.6 |
